Test results reported in patent US7541193B2, “Caged sensors, regulators and compounds and uses thereof” (Panomics, Inc., priority 2002, dated 2009).

How the values were obtained:
PKC = test: photoactivated in vitro PKC assay initiated by uncaging caged ATP; assay type: biochemical; settings: exposed to 365 nm UV lamp for 10 min; excitation 485 nm, emission 535 nm
Method: FIG. 34 is a line graph depicting the results of a photoactivated PKC assay using caged ATP and a PKC sensor. […] Reactions were read on a fluorescent microtiter plate reader with excitation at 485 nm and emission at 535 nm.
FIG. 33 (see, also, FIG. 23) illustrates the activation of an in vitro PKC assay after exposure to 365 nm light. All components were mixed together in a 96-well microtiter plate. The plate was exposed to a 365 nm UV lamp for 10 min (step 3301) and immediately placed into a fluorescent microtiter plate reader for detection. The light-activated compound is DMNPE-caged ATP. […] See, e.g., McCray and Trentham (1989) “Properties and Uses of Photoreactive Caged Compounds” Annu Rev Biophys Biophys Chem 18:239 for a description of the caged ATP. The PKC probes and reaction set-up are based on Yeh et al. (2002) “Real time visualization of protein kinase activity in living cells” J Biol Chem 277: 11527-11532, with the replacement of normal ATP by DMNPE-caged ATP.

protein kinase C (PKC) = test: in vivo IC-50 determination with photolabile caged PKC sensor in living HeLa cells; assay type: cell-based; settings: HeLa cells transfected with 10 μM caged PKC sensor; 30 min inhibitor incubation; uncaging 1 J/cm^2 365 nm; 1 μM PMA; read-out: IC-50 determined in vivo
Method: The caged PKC sensor was transfected into the cells at a concentration of 10 μM, as follows. To 37.5 μl serum-free DMEM, 2.5 μl Profect P-2 and then 10 μl of caged PKC sensor (diluted to 500 μM in PBS) were added. The reagents were mixed gently and incubated for 30 minutes at room temperature. The DMEM was removed from the well containing the HeLa cells, and the cells were washed once with PBS. After addition of 450 μl serum-free DMEM to the Profect P-2-caged sensor complex, 50 μl of the complex was added to each well. The HeLa cells were incubated with the complex at 37° C. for 2 h (or optionally longer, with the addition of fresh DMEM). To uncage the caged PKC sensor, cells were exposed from beneath the plate to 1 J/cm^2 365 nm UV light. Uncaging light was produced by a BlueWave ™ UV Spot Light System fitted with a Lightguide mount assembly, Cool Blue™ filter, and Lightguide rod lens assembly (Dymax Corp., on the internet at dymax.com, part numbers 38600, 38670, and 38699). […] Fluorescent signal from the PKC sensor was read on an Acumen Explorer™ microplate reader.
Cells containing the caged sensor were incubated with 4-fold dilutions of GF109203X for 30 min before the cells were exposed to uncaging light (1 J/cm^2, 365 nm) and treated with 1 μM PMA. Fluorescent signal from the PKC sensor was read on an Acumen Explorer™ microplate reader. […]

PKC enzyme = test: in vitro biochemical PKC assay with PKC sensor (not caged); settings: 1 mM ATP, 1 μM PKC sensor (not caged), 22 nM PKC enzyme; read-out: IC-50 determined in an in vitro biochemical assay

COc1cc(C(C)OP(=O)(O)OP(=O)(O)OP(=O)(O)OCC2OC(n3cnc4c(N)ncnc43)C(O)C2O)c([N+](=O)[O-])cc1OC (stereo not drawn) [DMNPE-caged ATP]
signal response (relative fluorescence) of PKC reaction (PKC): exhibits signal response similar to the reaction with normal ATP

CN(C)CCCn1cc(C2=C(c3c[nH]c4ccccc34)C(=O)NC2=O)c2ccccc21 [GF109203X]
IC50 (protein kinase C (PKC)): 1600 nM
IC50 (PKC enzyme): 1100 nM
